Our source for the Ki values is patent publication US12570695B2, “Bicyclic peptide ligands specific for EphA2” (priority 2019, dated 2026).

Starred links: 1 amine or outer side, 2 acyl side, 3 side chain; linkers in the order of their positions; H or OH if unused. Positions of bridges follow the written chain, without caps; N, C: chain ends. Non-standard residues stand in square brackets, D forms with d. Residues, ends and D or L forms follow the SMILES beside them. X5 = O=C(CCSCCN[*:3])N1CN(C(=O)CC[*:1])CN(C(=O)CC[*:2])C1; TATA = O=C(CC[*:1])N1CN(C(=O)CC[*:2])CN(C(=O)CC[*:3])C1; Ala(4-thiazolyl) = N[C@@H](Cc1cscn1)C(=O)O; Dip = N[C@H](C(=O)O)C(c1ccccc1)c1ccccc1; d1Nal = N[C@H](Cc1cccc2ccccc12)C(=O)O; Hyp = O=C(O)[C@@H]1C[C@@H](O)CN1; hArg = N=C(N)NCCCC[C@H](N)C(=O)O; 3Thi = N[C@@H](Cc1ccsc1)C(=O)O; Aad = N[C@@H](CCCC(=O)O)C(=O)O; Cba = N[C@@H](CC1CCC1)C(=O)O; dNle = CCCC[C@@H](N)C(=O)O; Nle = CCCC[C@H](N)C(=O)O

Sequence of human EphA2 (P29317 24-976): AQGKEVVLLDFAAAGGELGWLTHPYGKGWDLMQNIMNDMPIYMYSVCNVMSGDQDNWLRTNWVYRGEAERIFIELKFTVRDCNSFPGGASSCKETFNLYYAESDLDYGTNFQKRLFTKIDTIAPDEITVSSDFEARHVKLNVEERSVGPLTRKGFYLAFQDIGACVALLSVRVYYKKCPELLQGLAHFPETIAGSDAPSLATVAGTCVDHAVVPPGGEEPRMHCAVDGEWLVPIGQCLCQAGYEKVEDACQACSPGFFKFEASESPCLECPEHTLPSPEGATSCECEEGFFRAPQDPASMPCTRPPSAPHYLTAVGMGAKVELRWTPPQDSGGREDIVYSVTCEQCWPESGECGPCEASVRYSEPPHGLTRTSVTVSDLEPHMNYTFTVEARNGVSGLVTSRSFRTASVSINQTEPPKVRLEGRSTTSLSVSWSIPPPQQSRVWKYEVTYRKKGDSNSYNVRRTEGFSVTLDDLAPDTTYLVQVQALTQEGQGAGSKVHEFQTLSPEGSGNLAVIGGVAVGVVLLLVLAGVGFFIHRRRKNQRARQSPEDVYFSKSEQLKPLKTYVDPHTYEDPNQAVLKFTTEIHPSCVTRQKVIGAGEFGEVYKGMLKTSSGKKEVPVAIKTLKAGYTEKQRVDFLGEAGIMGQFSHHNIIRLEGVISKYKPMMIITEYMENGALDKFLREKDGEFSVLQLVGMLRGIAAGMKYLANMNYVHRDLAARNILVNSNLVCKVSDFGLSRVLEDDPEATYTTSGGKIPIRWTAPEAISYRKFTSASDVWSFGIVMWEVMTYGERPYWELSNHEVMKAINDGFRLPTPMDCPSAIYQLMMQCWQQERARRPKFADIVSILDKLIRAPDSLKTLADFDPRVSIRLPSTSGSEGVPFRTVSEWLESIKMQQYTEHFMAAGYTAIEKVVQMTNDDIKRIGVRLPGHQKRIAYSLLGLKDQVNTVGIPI

This assay has as its target human EphA2 (Homo sapiens, UniProt P29317). Description: biochemical.
Protocol: Peptides without a fluorescent tag were tested in competition with a peptide with a fluorescent tag and a known Kd.
Peptides were diluted to an appropriate concentration in assay buffer as described in the direct binding assay with a maximum of 5% DMSO, then serially diluted 1 in 2. […] Measurements were conducted, however the gain was determined prior to the first measurement. Data analysis was in Systat Sigmaplot version 12.0 where the mP values were fit to a user defined cubic equation to generate a Ki value:
“Lig”, “KLig” and “Prot” were all defined values relating to: fluorescent peptide concentration, the Kd of the fluorescent peptide and EphA2 concentration respectively.
Compound `CC(C)C[C@@H]1NC(=O)[C@@H]2CSCCC(=O)N3CN(CN(C3)C(=O)CCSC[C@H](NC(=O)[C@H](CC(=O)O)NC(=O)[C@H](CCCCNC(=N)N)NC(=O)[C@H](C)N)C(=O)N3C[C@H](O)C[C@H]3C(=O)N[C@@H](CCCC(=O)O)C(=O)N[C@@H](C(C)C)C(=O)N[C@@H](CC(N)=O)C(=O)N3CCC[C@H]3C(=O)N[C@@H](CC(C)C)C(=O)N2)C(=O)CCSC[C@@H](C(N)=O)NC(=O)[C@H](CCCCNC(=N)N)NC(=O)[C@H](Cc2c[nH]c3ccccc23)NC(=O)[C@@H](CC(=O)O)NC(=O)[C@@H]2CCCN2C(=O)[C@H](Cc2c[nH]cn2)NC1=O` [BCY13130, A-[HArg]-D-Ci[HyP][hGlu]VNPLCiiLHP[dD]W[HArg]Ciii] (H-A[hArg]DC[Hyp][Aad]VNPLCLHP[dD]W[hArg]C-NH2; linker 4-11-18 via TATA; N-terminus and C-terminus assumed) had a Ki of 7.8 nM. Consider `CC(C)C[C@@H]1NC(=O)[C@@H]2CSCCC(=O)N3CN(CN(C3)C(=O)CCSC[C@H](NC(=O)[C@H](CC(=O)O)NC(=O)[C@H](CCCCNC(=N)N)NC(=O)[C@H](C)N)C(=O)N3C[C@H](O)C[C@H]3C(=O)N[C@@H](CC(C)C)C(=O)N[C@@H](C(C)C)C(=O)N[C@@H](CC(N)=O)C(=O)N3CCC[C@H]3C(=O)N[C@@H](CC(C)C)C(=O)N2)C(=O)CCSC[C@@H](C(=O)N[C@H](C)C(N)=O)NC(=O)[C@H]([C@@H](C)O)NC(=O)[C@H](Cc2c[nH]c3ccccc23)NC(=O)[C@@H](CC(=O)O)NC(=O)[C@@H]2CCCN2C(=O)[C@H](CCC(=O)O)NC1=O` [BCY12857, A-[HArg]-D-Ci[HyP]LVNPLCiiLEP[dD]WTCiii[dA]] (H-A[hArg]DC[Hyp]LVNPLCLEP[dD]WTC[dA]-NH2; linker 4-11-18 via TATA; N-terminus and C-terminus assumed), for which the inhibition constant Ki was found to be 16 nM. `CC(C)C[C@@H]1NC(=O)[C@@H]2CSCCC(=O)N3CN(CN(C3)C(=O)CCSC[C@H](NC(=O)[C@H](CC(=O)O)NC(=O)[C@H](CCCCNC(=N)N)NC(=O)[C@H](C)N)C(=O)N3C[C@H](O)C[C@H]3C(=O)N[C@@H](CC(C)C)C(=O)N[C@@H](C(C)C)C(=O)N[C@@H](CC(N)=O)C(=O)N3CCC[C@H]3C(=O)N[C@@H](CC(C)C)C(=O)N2)C(=O)CCSC[C@@H](C(N)=O)NC(=O)[C@H](CCCCNC(=N)N)NC(=O)[C@H](Cc2c[nH]c3ccccc23)NC(=O)[C@@H](CC(=O)O)NC(=O)[C@@H]2CCCN2C(=O)[C@H](Cc2ccsc2)NC1=O` [BCY13923, A[HArg]DCi[HyP]LVNPLCiiL[3Thi]P[dD]W[HArg]Ciii] (H-A[hArg]DC[Hyp]LVNPLCL[3Thi]P[dD]W[hArg]C-NH2; linker 4-11-18 via TATA; N-terminus and C-terminus assumed): the affinity, expressed as Ki, was 1.32 nM. `CC(C)C[C@@H]1NC(=O)[C@@H]2CSCCC(=O)N3CN(CN(C3)C(=O)CCSC[C@H](NC(=O)[C@H](CC(=O)O)NC(=O)[C@H](CCCCNC(=N)N)NC(=O)[C@H](C)N)C(=O)N3C[C@H](O)C[C@H]3C(=O)N[C@@H](CC(C)C)C(=O)N[C@@H](C(C)C)C(=O)N[C@@H](CC(N)=O)C(=O)N3CCC[C@H]3C(=O)N[C@@H](CC(C)C)C(=O)N2)C(=O)CCSCCNC(=O)[C@H](CCCCNC(=N)N)NC(=O)[C@H](Cc2c[nH]c3ccccc23)NC(=O)[C@@H](CC(=O)O)NC(=O)[C@@H]2CCCN2C(=O)[C@H](Cc2c[nH]cn2)NC1=O` [BCY13133, A[HArg]DCi[HyP]LVNPLCiiLHP[dD]W[HArg][Cysam]iii] (H-A[hArg]DC[Hyp]LVNPLCLHP[dD]W[hArg]; linker 4-11-C via X5; N-terminus assumed) came in with a Ki of 3.24 nM. On to `CC(=O)N[C@H]1CSCCC(=O)N2CN3CN(C2)C(=O)CCSC[C@@H](C(=O)N[C@H](CCCCN)C(N)=O)NC(=O)[C@H]([C@@H](C)O)NC(=O)[C@H](Cc2c[nH]c4ccccc24)NC(=O)[C@@H](CC(=O)O)NC(=O)[C@@H]2CCCN2C(=O)[C@H](C(c2ccccc2)c2ccccc2)NC(=O)[C@H](CC(C)C)NC(=O)[C@H](CSCCC3=O)NC(=O)[C@H](CC(C)C)NC(=O)[C@@H]2CCCN2C(=O)[C@H](CC(N)=O)NC(=O)[C@H](C(C)C)NC(=O)[C@H](CC(C)C)NC(=O)[C@@H]2C[C@@H](O)CN2C1=O` [BCY13120, Ac-Ci[HyP]LVNPLCiiL[3,3-DPA]P[dD]WTCiii-[dK]] (Ac-C[Hyp]LVNPLCL[Dip]P[dD]WTC[dK]-NH2; linker 1-8-15 via TATA; C-terminus assumed), for which the inhibitory constant (Ki) stood at 0.916 nM. `CC(C)C[C@@H]1NC(=O)[C@@H]2CSCCC(=O)N3CN(CN(C3)C(=O)CCSC[C@H](NC(=O)[C@H](CC(=O)O)NC(=O)[C@H](CCCCNC(=N)N)NC(=O)[C@H](C)N)C(=O)N3C[C@H](O)C[C@H]3C(=O)N[C@@H](CC(C)C)C(=O)N[C@@H](C(C)C)C(=O)N[C@@H](CC(N)=O)C(=O)N3CCC[C@H]3C(=O)N[C@@H](CC(C)C)C(=O)N2)C(=O)CCSC[C@@H](C(N)=O)NC(=O)[C@H]([C@@H](C)O)NC(=O)[C@H](Cc2c[nH]c3ccccc23)NC(=O)[C@@H](Cc2cccc3ccccc23)NC(=O)[C@@H]2CCCN2C(=O)[C@H](CCC(=O)O)NC1=O` [BCY13118, A-[HArg]-D-Ci[HyP]LVNPLCiiLEP[d1Nal]WTCiii] (H-A[hArg]DC[Hyp]LVNPLCLEP[d1Nal]WTC-NH2; linker 4-11-18 via TATA; N-terminus and C-terminus assumed) yielded a Ki of 5.42 nM. With `CC(=O)N[C@H]1CSCCC(=O)N2CN3CN(C2)C(=O)CCSC[C@H](NC(=O)[C@H](CC(C)C)NC(=O)[C@@H]2CCCN2C(=O)[C@H](CC(N)=O)NC(=O)[C@H](C(C)C)NC(=O)[C@H](CC(C)C)NC(=O)[C@@H]2C[C@@H](O)CN2C1=O)C(=O)N[C@@H](CC(C)C)C(=O)N[C@@H](Cc1c[nH]cn1)C(=O)N1CCC[C@H]1C(=O)N[C@H](CC(=O)O)C(=O)N[C@@H](Cc1c[nH]c2ccccc12)C(=O)N[C@@H](CCCCNC(=N)N)C(=O)N[C@H](C(=O)N[C@@H](CC(C)C)C(=O)N[C@H](Cc1c[nH]cn1)C(=O)NCC(=O)N[C@H](CCCCN)C(N)=O)CSCCC3=O` [BCY13125, [Ac]Ci[HyP]LVNPLCiiLHP[dD]W[HArg]CiiiL[dH]G[dK]] (Ac-C[Hyp]LVNPLCLHP[dD]W[hArg]CL[dH]G[dK]-NH2; linker 1-8-15 via TATA; C-terminus assumed) the figure was 1.83 nM; with `CCCC[C@@H]1NC(=O)[C@H](CC(C)C)NC(=O)[C@@H]2CSCCC(=O)N3CN(CN(C3)C(=O)CCSC[C@H](NC(=O)[C@H](CC(=O)O)NC(=O)[C@H](CCCCNC(=N)N)NC(=O)[C@H](C)N)C(=O)N3C[C@H](O)C[C@H]3C(=O)N[C@@H](CC(C)C)C(=O)N[C@@H](C(C)C)C(=O)N[C@@H](CC(N)=O)C(=O)N3CCC[C@H]3C(=O)N[C@@H](CC(C)C)C(=O)N2)C(=O)CCSC[C@@H](C(N)=O)NC(=O)[C@H](CCCCNC(=N)N)NC(=O)[C@H](Cc2c[nH]c3ccccc23)NC(=O)[C@@H](CC(=O)O)NC(=O)[C@@H]2CCCN2C1=O` [BCY13135, A-[HArg]-D-Ci[HyP]LVNPLCiiL[Nle]P[dD]W[HArg]Ciii] (H-A[hArg]DC[Hyp]LVNPLCL[Nle]P[dD]W[hArg]C-NH2; linker 4-11-18 via TATA; N-terminus and C-terminus assumed), 0.894 nM.

`CCCC[C@H]1NC(=O)[C@@H]2CCCN2C(=O)[C@H](Cc2c[nH]cn2)NC(=O)[C@H](CC(C)C)NC(=O)[C@@H]2CSCCC(=O)N3CN(CN(C3)C(=O)CCSC[C@H](NC(=O)[C@H](CC(=O)O)NC(=O)[C@H](CCCCNC(=N)N)NC(=O)[C@H](C)N)C(=O)N3C[C@H](O)C[C@H]3C(=O)N[C@@H](CC(C)C)C(=O)N[C@@H](C(C)C)C(=O)N[C@@H](CC(N)=O)C(=O)N3CCC[C@H]3C(=O)N[C@@H](CC(C)C)C(=O)N2)C(=O)CCSC[C@@H](C(N)=O)NC(=O)[C@H](CCCCNC(=N)N)NC(=O)[C@H](Cc2c[nH]c3ccccc23)NC1=O` [BCY13134, A-[HArg]-D-Ci[HyP]LVNPLCiiLHP[dNle]W[HArg]Ciii] (H-A[hArg]DC[Hyp]LVNPLCLHP[dNle]W[hArg]C-NH2; linker 4-11-18 via TATA; N-terminus and C-terminus assumed) displayed a Ki of 1.16 nM. Compound `CC(C)C[C@@H]1NC(=O)[C@@H]2CSCCC(=O)N3CN(CN(C3)C(=O)CCSC[C@H](NC(=O)[C@H](CC(=O)O)NC(=O)[C@H](CCCCNC(=N)N)NC(=O)[C@H](C)N)C(=O)N3C[C@H](O)C[C@H]3C(=O)N[C@@H](CC(C)C)C(=O)N[C@@H](C(C)C)C(=O)N[C@@H](CC(N)=O)C(=O)N3CCC[C@H]3C(=O)N[C@@H](CC(C)C)C(=O)N2)C(=O)CCSC[C@@H](C(N)=O)NC(=O)[C@H](CCCCNC(=N)N)NC(=O)[C@H](Cc2c[nH]c3ccccc23)NC(=O)[C@@H](CC(=O)O)NC(=O)[C@@H]2CCCN2C(=O)[C@H](Cc2cscn2)NC1=O` [BCY13919, A[HArg]DCi[HyP]LVNPLCiiL[4ThiAz]P[dD]W[HArg]Ciii] (H-A[hArg]DC[Hyp]LVNPLCL[Ala(4-thiazolyl)]P[dD]W[hArg]C-NH2; linker 4-11-18 via TATA; N-terminus and C-terminus assumed) registered a Ki of 2.1 nM. Consider `CC(C)C[C@@H]1NC(=O)[C@@H]2CSCCC(=O)N3CN(CN(C3)C(=O)CCSC[C@H](NC(=O)[C@H](CC(=O)O)NC(=O)[C@H](CCCCNC(=N)N)NC(=O)[C@H](C)N)C(=O)N3C[C@H](O)C[C@H]3C(=O)N[C@@H](CC3CCC3)C(=O)N[C@@H](C(C)C)C(=O)N[C@@H](CC(N)=O)C(=O)N3CCC[C@H]3C(=O)N[C@@H](CC(C)C)C(=O)N2)C(=O)CCSC[C@@H](C(N)=O)NC(=O)[C@H](CCCCNC(=N)N)NC(=O)[C@H](Cc2c[nH]c3ccccc23)NC(=O)[C@@H](CC(=O)O)NC(=O)[C@@H]2CCCN2C(=O)[C@H](Cc2c[nH]cn2)NC1=O` [BCY12862, A-[HArg]-D-Ci[HyP][Cba]VNPLCiiLHP[dD]W[HArg]Ciii] (H-A[hArg]DC[Hyp][Cba]VNPLCLHP[dD]W[hArg]C-NH2; linker 4-11-18 via TATA; N-terminus and C-terminus assumed), for which the Ki turned out to be 1.22 nM.

For orientation: Ki means the equilibrium dissociation constant of an inhibitor or competing ligand from its target. Lower therefore signals a stronger hold on the target.
